The results in this text go back to PubChem BioAssay AID2060912 (Molecular Pharmacology Branch, DTP, NCI, 2025).

Structures are written as SMILES.

The experiment relates to HUVEC/MSC spheroids viability. Nature of the experiment: Human HUVEC/MSC cell line growth inhibition [KRAS2].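 As to viability, T/C: percent of DMSO vehicle control luminescence so 100% = untreated viability.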 Particulars: for viability, T/C: stronger effect = lower value. Summed up: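 Growth/viability of tumour-free HUVEC–hMSC spheroids was measured after exposure to targeted small molecules and KRAS inhibitors, singly or in combination. Agents were diluted in half-log steps from Cmax-based top concentrations, capped at 10 microM without known Cmax.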

Usually IC50 stands for the midpoint of a concentration-inhibition curve. The viability, T/C is the result in the treated group divided by that in the control group, in per cent.

Take `O=C(c1cc(Cc2n[nH]c(=O)c3ccccc23)ccc1F)N1CCN(C(=O)C2CC2)CC1` + CNCc1ccccc1-c1csc(C(C)Nc2nc(C)nc3cc(OC)c(OC)cc23)c1: the IC50 (curve of first compound, second compound 0.0316 µM) is more than 10 µM; the IC50 (curve of first compound, second compound 0.1 µM) was more than 10 µM; the IC50 (curve of first compound, second compound 0.316 µM) was more than 10 µM; the half-maximal inhibitory concentration (IC50) (curve of first compound, second compound 1 µM) was more than 10 µM; the half-inhibitory concentration (IC50) (curve of first compound, second compound 3.16 µM) is more than 10 µM; the IC50 (curve of first compound, second compound 10 µM) was less than 0.0316 µM. Also, the viability, T/C was 95.6% (second compound 0.0316 µM, first compound 0.0316 µM); 92.6% (second compound 0.0316 µM, first compound 0.1 µM); 93.1% (second compound 0.0316 µM, first compound 0.316 µM); 84.2% (second compound 0.0316 µM, first compound 1 µM); 80.3% (second compound 0.0316 µM, first compound 3.16 µM); 72% (second compound 0.0316 µM, first compound 10 µM). The viability, T/C is 87.1% (second compound 0.1 µM, first compound 0.0316 µM); 91.4% (second compound 0.1 µM, first compound 0.1 µM); 92.1% (second compound 0.1 µM, first compound 0.316 µM); 78.2% (second compound 0.1 µM, first compound 1 µM); 81.9% (second compound 0.1 µM, first compound 3.16 µM); 96% (second compound 0.1 µM, first compound 10 µM). The viability, T/C (second compound 0.316 µM, first compound 0.0316 µM) is 84.6%; the viability, T/C (second compound 0.316 µM, first compound 0.1 µM) was 92.2%; the viability, T/C (second compound 0.316 µM, first compound 0.316 µM) is 76.7%; the viability, T/C (second compound 0.316 µM, first compound 1 µM) is 92.3%; the viability, T/C (second compound 0.316 µM, first compound 3.16 µM) was 89.8%; the viability, T/C (second compound 0.316 µM, first compound 10 µM) was 93.9%. Moreover, the viability, T/C was 70% (second compound 1 µM, first compound 0.0316 µM); 84.7% (second compound 1 µM, first compound 0.1 µM); 85.5% (second compound 1 µM, first compound 0.316 µM); 81.1% (second compound 1 µM, first compound 1 µM); 78% (second compound 1 µM, first compound 3.16 µM); 104% (second compound 1 µM, first compound 10 µM). Besides, the viability, T/C was 95.7% (second compound 3.16 µM, first compound 0.0316 µM); 87.8% (second compound 3.16 µM, first compound 0.1 µM); 98.2% (second compound 3.16 µM, first compound 0.316 µM); 105% (second compound 3.16 µM, first compound 1 µM); 92.3% (second compound 3.16 µM, first compound 3.16 µM); 95.8% (second compound 3.16 µM, first compound 10 µM). Also, the viability, T/C is 0.39% (second compound 10 µM, first compound 0.0316 µM); 0.43% (second compound 10 µM, first compound 0.1 µM); 0.37% (second compound 10 µM, first compound 0.316 µM); 0.34% (second compound 10 µM, first compound 1 µM); 0.39% (second compound 10 µM, first compound 3.16 µM); 0.41% (second compound 10 µM, first compound 10 µM).
Consider `CNCc1ccccc1-c1csc(C(C)Nc2nc(C)nc3cc(OC)c(OC)cc23)c1` (stereo unspecified), for which the viability, T/C (compound 0.0316 µM) was 88.4% [middle of 9 runs]; the viability, T/C (compound 0.316 µM) is 84.6% [middle of 9 runs]; the viability, T/C (compound 10 µM) was 0.41% [middle of 8 runs]. Also, under “compound alone, run of 05/05/2024”, the concentration for half-maximal inhibition (IC50) was 5.29 µM [middle of 8 runs].
